# According to paper PMC9995496, “A screen for MeCP2-TBL1 interaction inhibitors using a luminescence-based assay” (Scientific Reports, 2023):
# Target: T1, MeCP2-TBL1 interaction (MeCP2-SmBiT / TBL1-LgBiT) (Mus musculus, UniProt Q9QXE7)
# T1 construct: expressed in transfected cells; crude lysate used as a cell-free assay
# T1 sequence (Q9QXE7 166-527): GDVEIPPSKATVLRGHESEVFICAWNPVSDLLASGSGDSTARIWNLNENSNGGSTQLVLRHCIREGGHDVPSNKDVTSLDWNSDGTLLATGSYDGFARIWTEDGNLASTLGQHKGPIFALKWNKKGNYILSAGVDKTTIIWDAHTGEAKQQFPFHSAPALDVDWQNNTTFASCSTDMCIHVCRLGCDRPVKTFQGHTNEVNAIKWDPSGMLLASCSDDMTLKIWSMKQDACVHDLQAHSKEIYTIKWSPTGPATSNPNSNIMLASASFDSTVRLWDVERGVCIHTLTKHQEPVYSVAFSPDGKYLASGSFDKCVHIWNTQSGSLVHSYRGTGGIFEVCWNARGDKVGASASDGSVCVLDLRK
# Test: MeCP2-TBL1 NanoLuc luciferase complementation assay (cell-free, extracts of transfected HEK293 cells);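 further: each compound tested at 20 µM final concentration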
# Assay type: binding, human
# In short: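 Cell-free split NanoLuc: lysate of HEK293 cells co-expressing the MeCP2 C-terminal half-SmBiT and TBL1 WD domain-LgBiT, mixed 1:1 with furimazine. After 30 min at room temperature, luminescence was plate-median normalized.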
# [1] = primary screen of Asinex library, single well per compound
# [2] = primary screen of the Asinex library, sheet "Sargen output Asinex library", one well per compound, Batch Ref. 1
# [3] = primary screen of the Asinex library, sheet "Sargen output Asinex library", one well per compound
Compound,Inhibition percent [1],Inhibition percent [2],also measured
CC1(C)Oc2c(O)cccc2[C@@H]2O[C@@H]3CCN(C(=O)c4cccc(Cn5ccnc5)c4)[C@@H]3C[C@H]21 [BDG_34133887],0.92,–,–
CC1(C)Oc2ccccc2[C@@H]2O[C@@H]3CCN(C(=O)c4cccc(Cn5ccnc5)c4)C[C@@H]3C[C@H]21 [BDG_34133919],–,1.73%,–
CC1(C)Oc2ccc(Cl)cc2[C@H]2O[C@H]3CCN(CC(=O)N4CC(=O)Nc5ccccc54)C[C@@H]3C[C@@H]21 [BDG_34134010],–,2.78%,–
CC1(C)Oc2c(O)cccc2[C@H]2O[C@H]3CCN(CC(=O)N4CC(=O)Nc5ccccc54)[C@@H]3C[C@@H]21 [BDG_34134040],–,–,Inhibition percent [3]: 2.67%
CC1(C)Oc2ccc(Cl)cc2[C@@H]2O[C@@H]3CCN(CC(=O)N4CC(=O)Nc5ccccc54)C[C@@H]3C[C@H]21 [BDG_34134082],–,3.72%,–
Cc1cc(O[C@@H]2C[C@@H](NC(=O)CCCC(=O)O)[C@H](N3CCc4ccccc4C3)[C@H]2O)cc(C(C)C)c1 [BDG_34135452],–,-0.70%,–
O=C(O)CCCC(=O)N[C@@H]1C[C@@H](Oc2cccc(Cl)c2)[C@H](O)[C@H]1N1CCc2ccccc2C1 [BDG_34135462],–,-0.65%,–
CN(Cc1ccccc1)[C@@H]1[C@@H](O)[C@H](Oc2ccc(F)c(F)c2)C[C@H]1NC(=O)CC(C)(C)CC(=O)O [BDG_34135525],–,–,Inhibition percent [3]: 1.42%
CN(Cc1ccccc1)[C@@H]1[C@@H](O)[C@H](Oc2ccccc2F)C[C@H]1NC(=O)CC(C)(C)CC(=O)O [BDG_34135529],1.25,–,–
CN(Cc1ccc(F)cc1)[C@@H]1[C@@H](O)[C@H](Oc2ccccc2F)C[C@H]1NC(=O)CC(C)(C)CC(=O)O [BDG_34135530],5.96,–,–
CN(Cc1ccc(F)cc1)[C@@H]1[C@@H](O)[C@H](Oc2cccc(F)c2)C[C@H]1NC(=O)c1cccc(C(=O)O)c1 [BDG_34135616],1.33,–,–
COC(=O)c1ccc(NC(=O)c2cccc(Br)c2OCC(=O)O)cc1 [BDG_51125744],–,7.09%,–
CC1(C)Oc2ccc(C(=O)O)cc2[C@H]2O[C@H]3CCSC[C@H]3C[C@@H]21 [BDG_51128812],-0.06,–,–
Cc1nc(Nc2ncc(C#N)s2)ccc1CC1COCCN(S(C)(=O)=O)C1 (centres unmarked) [BDG_51128826],-0.16,–,–
CC(=O)c1ccc(NC(=O)CN2CCC[C@@H]3O[C@@H]4c5cc(Cl)ccc5OC(C)(C)[C@H]4C[C@@H]32)cc1 [BDG_51129056],-1.84,–,–
COc1cccc2c1OC(C)(C)[C@@H]1C[C@H]3CN(CC(=O)Nc4ccc(C(C)=O)cc4)CC[C@H]3O[C@@H]21 [BDG_51129062],4.58,–,–
Cc1cc(C)n(-c2cccc(C(=O)N3C[C@@H](c4ccccc4)[C@@]4(CCCCC(=O)N4)C3)c2)n1 [BDH_20395756],–,–,Inhibition percent [3]: -4.76%
C[C@]12C[C@@H](Cc3ccccc3)N(C(=O)c3cccc(Cn4cccn4)c3)[C@H]1CCCC(=O)N2 [BDH_24639058],-1.63,–,–
Cc1c(F)cccc1NC(=O)CN1[C@H](Cc2ccccc2)C[C@]2(C)NC(=O)CCC[C@H]12 [BDH_24639961],–,0.80%,–
Cc1c(NC(=O)CN2[C@H](Cc3ccccc3)C[C@]3(C)NC(=O)CCC[C@H]23)cnn1C [BDH_24639966],0.23,–,–
Cc1cc(C)nc(NCCC(=O)N2[C@H](Cc3ccccc3)C[C@]3(C)NC(=O)CCC[C@H]23)n1 [BDH_24639981],–,-1.66%,–
Clc1cccc(Cc2cncc(C3CCCN3Cc3ccnc(N4CCOCC4)n3)n2)c1 (centres unmarked) [BDH_27227771],–,–,Inhibition percent [3]: 3.31%
O=C1CCCC[C@]2(CN(C(=O)CCc3ccc(F)cc3)C[C@H]2c2ccccc2)N1 [BDH_32219010],-1.17,–,–
O=C(N1CCC2(CC1)COC(Cc1cccc(F)c1)C2)C1(c2cccc(F)c2)CCOCC1 (centres unmarked) [BDH_32247901],–,–,Inhibition percent [3]: 0.54%
C[C@]12C[C@@H](c3ccccc3)N(CC(=O)N3CC(=O)Nc4ccccc43)[C@H]1CCCCCN2 [BDH_32250993],1.88,–,–
CC(=O)N[C@@]12CN(CC(=O)Nc3cccc4c3CCCC4)CC[C@@H]1[C@@H](c1ccccc1)N(C)C2 [BDH_32251192],–,–,Inhibition percent [3]: 4.01%
